Patent publication US10023592B2, “Bromodomain inhibitors” (Celgene Quanticel Research, Inc., priority 2013, dated 2018)

Key:
[1] = tested on: HL-60, human proleukemia cells; experiment: Cell-MTS proliferation assay, HL-60; type: cell-based; conditions: Homo sapiens; Cell-MTS proliferation, HL-60 cells, 168 hr
Procedure, shortened: (§1)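 Seed: Raji 15,000, HL-60 5,000, NCI-H460 3,000 cells/96-well. +24 hr: 11-pt compound dilution, 100 μM–2.0 nM final. 7 d culture, MTS reagent, read OD490; IC50 vs DMSO, background subtracted.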

[2] = tested on: Raji, human Burkitts lymphoma cells; experiment: Cell-MTS proliferation assay, Raji; type: cell-based; conditions: Homo sapiens; Cell-MTS proliferation, Raji cells, 168 hr
Procedure, shortened: as §1

[3] = tested on: NCI-H460, human non-small cell lung cancer cells; experiment: Cell-MTS proliferation assay, NCI-H460; type: cell-based; conditions: Homo sapiens; Cell-MTS proliferation, NCI-H460 cells, 168 hr
Procedure, shortened: as §1

BRD4(BD1) = BRD4(BD1) (Homo sapiens (Human), UniProt O60885); experiment: In vitro enzyme inhibition assay (BRD4 AlphaScreen); type: binding; conditions: in vitro enzyme inhibition assay
Procedure, shortened: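 His-tagged BRD4 tested by AlphaScreen for binding of biotinylated H4K5/8/12/16-tetraacetyl peptide. After 20 min at room temperature, streptavidin donor and nickel chelate acceptor beads added (5 μg/mL final each). IC50 determined.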

SMILES	IC50 [1]	IC50 [2]	IC50 [3]	IC50 (BRD4(BD1))
CCS(=O)(=O)Nc1ccc(OC2CCCOC2)c(-c2cc(C)c(=O)n(C)c2)c1 (stereo not drawn) [Example 448, N-[3-(1,5-dimethyl-6-oxopyridin-3-yl)-4-(oxan-3-yloxy)phenyl]ethanesulfonamide]	< 500 nM	< 500 nM	> 5000 nM	< 500 nM
CCS(=O)(=O)Nc1ccc(OC2CCC(F)(F)CC2)c(-c2cc(C)c(=O)n(C)c2)c1 [Example 449, N-[4-(4,4-difluorocyclohexyl)oxy-3-(1,5-dimethyl-6-oxopyridin-3-yl)phenyl] ethanesulfonamide]	< 500 nM	< 500 nM	> 5000 nM	< 500 nM
CCS(=O)(=O)c1ccc(OCC2CC2)c(-c2cc(C)c(=O)n(C)c2)c1 [Example 450, 5-[2-(cyclopropylmethoxy)-5-ethylsulfonylphenyl]-1,3-dimethylpyridin-2-one]	< 500 nM	< 500 nM	> 5000 nM	< 500 nM
Cn1cc(-c2cc(S(N)(=O)=O)ccc2NCC2CC2)ccc1=O [Example 453, 4-(cyclopropylmethylamino)-3-(1-methyl-6-oxopyridin-3-yl)benzenesulfonamide]	> 5000 nM	> 5000 nM	> 5000 nM	> 5000 nM
Cc1cc(=O)n(C)cc1-c1cc(CS(C)(=O)=O)ccc1Oc1ccc(F)cc1F [Example 454, 5-[2-(2,4-difluorophenoxy)-5-(methylsulfonylmethyl)phenyl]-1,4-dimethylpyridin-2-one]	< 500 nM	< 500 nM	> 5000 nM	< 500 nM
Cc1cc(-c2cc(CS(C)(=O)=O)ccc2Oc2ccc(F)cc2F)cn(C)c1=O [Example 455, 5-[2-(2,4-difluorophenoxy)-5-(methylsulfonylmethyl)phenyl]-1,3-dimethylpyridin-2-one]	< 500 nM	< 500 nM	> 5000 nM	< 500 nM
Cc1cc(-c2cc(S(C)(=O)=O)ccc2OCC2CCC2)cn(C)c1=O [Example 459, 5-[2-(cyclobutylmethoxy)-5-methylsulfonylphenyl]-1,3-dimethylpyridin-2-one]	< 500 nM	< 500 nM	> 5000 nM	< 500 nM
Cc1cc(-c2cc(S(C)(=O)=O)ccc2NCC2CC2)cn(C)c1=O [Example 462, 5-[2-(cyclopropylmethylamino)-5-methylsulfonylphenyl]-1,3-dimethylpyridin-2-one]	< 500 nM	< 500 nM	> 5000 nM	< 500 nM
CN(C)c1cc(-c2cc(NS(C)(=O)=O)ccc2Oc2ccc(F)cc2F)cn(C)c1=O [Example 463, N-[4-(2,4-difluorophenoxy)-3-[5-(dimethylamino)-1-methyl-6-oxopyridin-3-yl]phenyl]methanesulfonamide]	< 500 nM	< 500 nM	> 5000 nM	< 500 nM
CCS(=O)(=O)Nc1ccc(Oc2ccc(F)cc2F)c(-c2cc(N(C)C)c(=O)n(C)c2)c1 [Example 464, N-[4-(2,4-difluorophenoxy)-3-[5-(dimethylamino)-1-methyl-6-oxopyridin-3-yl]phenyl]ethanesulfonamide]	< 500 nM	< 500 nM	> 5000 nM	< 500 nM
CCS(=O)(=O)c1ccc(NCC2CC2)c(-c2cc(C)c(=O)n(C)c2)c1 [Example 465, 5-[2-(cyclopropylmethylamino)-5-ethylsulfonylphenyl]-1,3-dimethylpyridin-2-one]	< 500 nM	< 500 nM	> 5000 nM	< 500 nM
CCS(=O)(=O)c1ccc(OCC2CC2)c(-c2cn(C)c(=O)cc2C)c1 [Example 466, 5-[2-(cyclopropylmethoxy)-5-ethylsulfonylphenyl]-1,4-dimethylpyridin-2-one]	< 500 nM	< 500 nM	> 5000 nM	< 500 nM
